Earlier results on five compounds are cited in patent publication US20220218582A1, “METHOD FOR DYEING KERATINOUS MATERIAL, COMPRISING THE USE OF AN ORGANOSILICON COMPOUND, A CHROMOPHORIC COMPOUND, A MODIFIED FATTY ACID ESTER AND A SEALING REAGENT I” (Henkel AG & Co. KGaA, priority 2019, published 2022).

The conditions of this data set: 25° C.

With `O=C([O-])c1c(Cl)c(Cl)c(Cl)c(Cl)c1-c1c2c(Br)cc(=O)c(Br)c-2oc2c(Br)c(O)cc(Br)c12.O=C([O-])c1c(Cl)c(Cl)c(Cl)c(Cl)c1-c1c2c(Br)cc(=O)c(Br)c-2oc2c(Br)c(O)cc(Br)c12.[Na+].[Na+]` [Acid Red 92, disodium salt of 3,4,5,6-tetrachloro-2-(1,4,5,8-tetrabromo-6-hydroxy-3-oxoxanthen-9-yl)benzoic acid], the solubility in water entry is “greater than 10 g/L”. `O=C([O-])C1=NN(c2ccc(S(=O)(=O)[O-])cc2)C(=O)C1N=Nc1ccc(S(=O)(=O)[O-])cc1.[Na+].[Na+].[Na+]` (centres unmarked) [Acid Yellow 23, trisodium salt of 4,5-dihydro-5-oxo-1-(4-sulfophenyl)-4-((4-sulfophenyl)azo)-1H-pyrazole-3-carboxylic acid]: the “solubility in water (in words)” value was “highly soluble”.

As to `Nc1cc(S(=O)(=O)[O-])cc2cc(S(=O)(=O)[O-])c(N=Nc3ccccc3)c(O)c12.[Na+].[Na+]` [Acid Red 33, disodium salt of 5-amino-4-hydroxy-3-(phenylazo)-naphthalene-2,7-disulphonate], the solubility in water was 2.5 g/L. With `O=S(=O)([O-])c1ccc(N=Nc2c(O)ccc3ccccc23)cc1.[Na+]` [Acid Orange 7, sodium salt of 4-[(2-hydroxy-1-naphthyl)azo]benzene sulphonate], the solubility in water result is on record as “more than 7 g/L”. On to “mixture of the sodium salts of mono- and disulfonic acids of 2-(2-quinolyl)-1H-indene-1,3(2H)-dione [Acid Yellow 3]”, for which the solubility in water is on record as 20 g/L.
